In ChEMBL document CHEMBL3508693 (2016):

Columns and labels:
[1] = AUCss(tau)/dose of aliskiren hemifumarate following repeated oral administration of [14C] aliskiren hemifumarate at 100 mg.Kg-1 level studied in rat; assay type: ADME, organism-based, Albino HAN:WIST, Plasma; details: in vivo
[2] = AUC (0-96 or 0-168h) of unlabeled aliskiren hemifumarate following single oral administration of aliskiren hemifumarate at 3 mg.Kg-1 level in marmoset; assay type: ADME, organism-based, Callithrix jacchus; details: plasma
[3] = Cmax of aliskiren hemifumarate following 4 week oral dietary dosing of aliskiren hemifumarate at 2000 mg.Kg-1 level in female mouse; assay type: ADME, organism-based; details: CB6F1-TGrasH2, mouse, in vivo
[4] = Tmax (0-96h) of unlabeled aliskiren hemifumarate following intravenous administration of aliskiren hemifumarate at 10 mg.Kg-1 level in rat; assay type: ADME, organism-based; details: Albino HAN:WIST, plasma
[5] = AUCspec of aliskiren hemifumarate following 2 week oral dosing of aliskiren hemifumarate at 50 mg.Kg-1 level studied on day 14 in female Callithrix jacchus; assay type: ADME, organism-based, Plasma; details: marmoset, in vivo, 336 h
[6] = Tmax of unlabeled aliskiren hemifumarate following single intravenous dose of aliskiren hemifumarate at 10 mg.Kg-1 level in mouse; assay type: ADME, organism-based; details: TgRasH2, mouse, plasma
[7] = Cmax of aliskiren hemifumarate following 4 week oral dietary dosing of aliskiren hemifumarate at 1500 mg.Kg-1 level in male mouse; assay type: ADME, organism-based; details: CB6F1-TGrasH2, mouse, in vivo
[8] = Tmax of aliskiren hemifumarate following 4 week oral dietary dosing of aliskiren hemifumarate at 1500 mg.Kg-1 level in male mouse; assay type: ADME, organism-based; details: CB6F1-TGrasH2, mouse, in vivo
[9] = Tmax of aliskiren hemifumarate following 8 day once-daily dosing of SPP100B oral solution at 640 mg level studied on day 8 in men; assay type: ADME, organism-based; details: male, human, plasma
[10] = Cmax of unlabeled aliskiren hemifumarate following single oral dose of aliskiren hemifumarate at 500 mg.Kg-1 level in mouse; assay type: ADME, organism-based; details: TgRasH2, mouse, plasma
[11] = Excretion (0-168h) of aliskiren in urine following oral administration of [14C] aliskiren hemifumarate at 3 mg.Kg-1 level in marmoset; assay type: ADME, organism-based, Callithrix jacchus; details: in vivo
CYP2A6 = target: T1, CYP2A6 (Homo sapiens, UniProt P11509); test: Inhibitory activity of 20 uM SPP100 on 37 Pmoles of cDNA-derived CYP2A6 enzyme in microsome prepared from human lymphoblastoid cell line; assay type: ADME, microsomes; design: conc 20 uM, interact cpd conc 3 uM; details: probe coumarine
T1 sequence (P11509 whole entry): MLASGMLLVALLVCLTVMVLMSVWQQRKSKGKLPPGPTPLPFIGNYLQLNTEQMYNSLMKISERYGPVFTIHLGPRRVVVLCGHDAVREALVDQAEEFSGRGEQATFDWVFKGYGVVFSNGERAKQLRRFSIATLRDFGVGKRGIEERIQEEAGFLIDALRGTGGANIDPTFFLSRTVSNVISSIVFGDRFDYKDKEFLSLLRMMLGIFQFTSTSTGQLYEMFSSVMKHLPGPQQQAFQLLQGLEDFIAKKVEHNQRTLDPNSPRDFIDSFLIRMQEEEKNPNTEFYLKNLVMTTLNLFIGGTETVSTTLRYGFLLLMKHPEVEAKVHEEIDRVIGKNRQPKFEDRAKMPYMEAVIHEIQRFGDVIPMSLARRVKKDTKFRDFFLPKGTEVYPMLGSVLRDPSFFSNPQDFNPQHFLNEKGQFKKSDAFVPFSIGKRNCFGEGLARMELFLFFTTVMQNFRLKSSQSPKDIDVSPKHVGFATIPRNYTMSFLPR

Cytochrome P450 3A4/3A5 = Cytochrome P450 3A4/3A5 (Homo sapiens, UniProt P08684+P20815); test: Estimated contribution of CYP3A4/5 to oxidative metabolism of [14C] aliskiren hemifumarate based on studies with microsomes from baculovirus-infected insect cells expressing recombinant human CYP450s and studies with pooled human liver microsomes from 22 donors; assay type: ADME, Microsome
[12] = Concentration of radioactivity in the brown fat following repeated oral administration of [14C] aliskiren hemifumarate at 100 mg.Kg-1 level studied at 24h after 10th dose in rat; assay type: ADME, organism-based, Albino HAN:WIST, Brown adipose tissue; details: in vivo
[13] = Mean excretion of radioactivity (0-24h) in urine and faeces following single oral dose of 500 mg.Kg-1 [14C] aliskiren hemifumarate in mouse; assay type: ADME, organism-based, TgRasH2, Urine/Feces; details: in vivo
[14] = % of radioactivity (48h) recovered in faeces of receiver rat following duodenal infusion of radioactivity through bile from donor rat treated with single intravenous administration of 10 mg.Kg-1 [14C] aliskiren hemifumarate; assay type: ADME, organism-based, HAN:WIST(SPF), Feces; details: in vivo
[15] = Cmax normalised (0-168h) of total radioactivity following single intravenous administration of [14C] aliskiren hemifumarate at 1 mg.Kg-1 level in marmoset; assay type: ADME, organism-based, Callithrix jacchus, Plasma; details: in vivo
[16] = Concentration of radioactivity in the brown fat following repeated oral administration of [14C] aliskiren hemifumarate at 100 mg.Kg-1 level studied at 24h after 3rd dose in rat; assay type: ADME, organism-based, Albino HAN:WIST, Brown adipose tissue; details: in vivo

COCCCOc1cc(C[C@@H](C[C@H](N)[C@@H](O)C[C@H](C(=O)NCC(C)(C)C(N)=O)C(C)C)C(C)C)ccc1OC.COCCCOc1cc(C[C@@H](C[C@H](N)[C@@H](O)C[C@H](C(=O)NCC(C)(C)C(N)=O)C(C)C)C(C)C)ccc1OC.O=C(O)/C=C/C(=O)O [ALISKIREN FUMARATE]
AUCss(tau) normalised [1]: 10 (nmol.h.L-1)/(mg/kg)
AUC at 168 h [2]: 4.55 µM·h
Cmax [3]: 1230 ng/mL
Tmax [4]: 4.98 min
AUC normalised [5]: 2.18 ((ug.h.ml-1)/(mg/kg)
Tmax [6]: 4.98 min
Cmax [7]: 363 ng/mL
Tmax [8]: 3 h
Tmax [9]: 3.2 h
Cmax [10]: 1450 nM

COCCCOc1cc(C[C@@H](C[C@H](N)[C@@H](O)C[C@H](C(=O)NCC(C)(C)C(N)=O)C(C)C)C(C)C)ccc1OC
Compound recovery [11]: 2.3%
inhibition at 20 µM (CYP2A6): 2.6%

COCCCOc1cc(C[C@@H](C[C@H](N)[C@@H](O)C[C@H](C(=O)NCC([14CH3])([14CH3])C(N)=O)C(C)C)C(C)C)ccc1OC.O=C(O)/C=C/C(=O)O
Activity (Cytochrome P450 3A4/3A5): 99.6%
Radiolabel recovery [12]: OUTCOME = Detected
Radiolabel recovery [13]: 69.96%
Radiolabel recovery [14]: 26.6%
Cmax normalised [15]: 11.42 (umol/L)/(mg/kg)
Radiolabel recovery [16]: OUTCOME = Detected
